Test results as given in patent US9814714B2, “Kinase modulation, and indications therefor” (Plexxikon Inc., priority 2015, dated 2017).
Where two headings read alike, the source gives them in different places.

Tests used:
BRAF = BRAF (Homo sapiens, UniProt P15056); assay: In vitro RAF kinase biochemical assay, wild-type BRAF
Method: (§1) The in vitro RAF kinase activities were determined by measuring phosphorylation of a biotinylated substrate peptide as described in Tsai et al 2008. Formula II was tested against a panel of 287 kinases at concentrations of 1 μM in duplicate. […] The 287 kinases represent all major branches of the kinome phylogenetic tree. The inhibition screen of 287 kinases was carried out under contract as complementary panels at Invitrogen (Life Technologies, WI, USA) SelectScreen™ profiling service, DiscoverX (CA, USA) KINOMEScan™ service, and Reaction Biology Corporation (PA, USA) Kinase HotSpot^SM service.
BRAF, residues L416 through H766 fused at the N-terminus with a GST tag, was produced in insect cells, and BRAF was purchased from Millipore (Catalog #14-530).
(§2) 1) Test compounds in DMSO were serially diluted and plated into 384-well assay plates at 1 μL/well.
(§3) 2) Added were 15 μL/well of RAF enzyme and biotinylated-MEK1 substrate in kinase buffer.
(§4) 3) Added were 4 μL of ATP (500 μM) in kinase buffer.
(§5) 5) After a brief spin down, the plate was incubated at about room temperature for 40-50 minutes. 6) Added was 5 μL of Stop buffer at final EDTA 20 mM; anti-phospho-MEK1 1:2,500; donor/acceptor beads 3 μg/mL. 7) After brief spin down, the plate was incubated at room temperature for about 3 hours. 8) The plate was read on the Envision multilabel plate reader (Perkin Elmer). […] 2. Results

CRAF = molecular target: T1, CRAF (Homo sapiens, UniProt P04049, Y340D/Y341D); assay: In vitro RAF kinase biochemical assay, activated CRAF
T1 construct: GST (N); purchased Millipore 14-352; host or cells: insect cells
Method: as §2, §3, §4, §5

[1] = tested on: pMEK in IPC-298 cells (NRAS-Q61L); assay: Phospho-MEK AlphaScreen assay, pMEK activation in IPC-298; format: cell-based; settings: Homo sapiens
Method: (§6) Using AlphaScreen® technology, the ability of Formula I to affect the phosphorylation of ERK and MEK in the cells was measured quantitatively. Following treatment with compound, the cells were lysed, and a sample of the lysate was transferred to an assay plate. The lysate was mixed with antibodies directed against total ERK/MEK, antibodies that recognize specific phosphorylation sites on ERK/MEK, AlphaScreen® anti-mouse IgG Acceptor beads, and Streptavidin Donor beads. Upon excitation of the donor beads with laser light at 680 nm, singlet oxygen was produced. This singlet oxygen was rapidly quenched, unless the AlphaScreen® Acceptor beads were in close proximity, in which case a proximity signal can be measured at 580 nm. In the presence of phosphorylated ERK/MEK, there is a very strong proximity signal. BRAF-V600 inhibitors affect a decrease in this proximity signal in cells expressing BRAF-V600E (e.g. A375) through a decrease in phosphorylation of the BRAF effectors ERK and MEK.
(§7) 1. One day before the assay, 50,000 cells were plated in each well of a 96-well tissue-culture-treated plate (Corning #3610) in a 50 μL volume. Cells were incubated at 37° C. overnight.
(§8) 2. Compounds were diluted in DMSO to 500× final concentration. Each compound was plated as an 8-point titration, using 1:3 dilutions in DMSO. The maximum concentration was about 5 mM.
3. […]

[2] = tested on: pMEK in B9 cells (HRAS-Q61L); assay: Phospho-MEK AlphaScreen assay, pMEK activation in B9; format: cell-based, murine; settings: Mus musculus
Method: as §6, §7, §8
3. […]

[3] = tested on: phospho-ERK1/2 (T202/Y204, pERK) in RAS mutant and BRAF^V600E cell lines; assay: pERK screen in cell line panel: ERK pathway inhibition index (EPII); format: cell-based; settings: for pERK activation in RAS mutant cell lines (in words): at the concentrations tested; for ERK pathway inhibition index (EPII): ratio between mean pERK activation EC50 (B9, IPC-298, HCT116) and mean pERK inhibition IC50 (A375, COLO829)
Method: Phospho-ERK AlphaScreen® assay: The degree of ERK phosphorylation was determined using an AlphaScreen® assay where an increase in ERK1/2 phosphorylation at Thr202/Tyr204 brought the donor and acceptor AlphaScreen® beads into close proximity, generating a signal for quantification. To determine the effects of compound treatment on phosphorylation of ERK1/2, cells were plated in a 96-well plate and treated with an 8-point titration of compound for one hour at 37° C. before lysis. To detect pERK, cell lysates were incubated with streptavidin-coated AlphaScreen® donor beads, anti-mouse IgG AlphaScreen® acceptor beads, a biotinylated anti-ERK1/2 rabbit antibody, and a mouse antibody that recognizes ERK1/2 only when it is phosphorylated on Thr202 and Tyr204. The biotinylated ERK1/2 antibody binds to both the streptavidin-coated AlphaScreen® donor beads and to ERK1/2 (regardless of its phosphorylation state), and the phospho-ERK1/2 antibody binds to the acceptor beads and to ERK1/2 that is phosphorylated at Thr202/Tyr204. An increase in ERK1/2 phosphorylation at Thr202/Tyr204 brings the donor and acceptor AlphaScreen® beads into close proximity, generating a signal that can be quantified on an EnVision reader (Perkin Elmer).

[4] = tested on: cell model that expresses the same HRAS mutation prevalent in squamous cell tumors; assay: HRAS mutant cell model: growth and MAPK pathway response gene expression; format: cell-based
Excerpt: In a cell model that expresses the same HRAS mutation prevalent in squamous cell tumors from patients treated with RAF inhibitors, first-generation RAF inhibitors stimulate the in vitro and in vivo growth of the cells and induce the expression of MAPK pathway response genes including EGFR ligands. […] Based on these advantageous properties of the compound of either Formula I or Formula II, enhanced tolerability and, in turn, increased drug dosage may be obtained.

[5] = tested on: pMEK in HCT116 cells (KRAS-G13D); assay: Phospho-MEK AlphaScreen assay, pMEK activation in HCT116; format: cell-based; settings: Homo sapiens, HCT-116
Method: as §6, §7, §8
3. […]

BRAF^V600E = BRAF^V600E (Homo sapiens, UniProt P15056, V600E); assay: In vitro RAF kinase biochemical assay, BRAF V600E
Method: as §1
BRAF proteins were produced in insect cells at Plexxikon Inc. as N-terminally His-tagged fragments encompassing the kinase domain.
as §2, §3, §4, §5

[6] = Table 1, average of more than 4 experiments
[7] = Table 1, average of more than 4 experiments, read-out: Biochemical IC50 BRAF^V600E

Sequence of BRAF^V600E (P15056 448-723 V600E): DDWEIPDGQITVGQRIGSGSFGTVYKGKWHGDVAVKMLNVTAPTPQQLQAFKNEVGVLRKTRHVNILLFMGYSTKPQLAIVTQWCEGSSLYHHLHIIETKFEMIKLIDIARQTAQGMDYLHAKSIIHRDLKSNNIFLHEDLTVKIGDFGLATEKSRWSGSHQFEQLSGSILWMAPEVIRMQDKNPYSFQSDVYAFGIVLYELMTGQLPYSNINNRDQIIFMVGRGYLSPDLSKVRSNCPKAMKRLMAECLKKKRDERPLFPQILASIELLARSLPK
T1 sequence (P04049 307-648 Y340D/Y341D): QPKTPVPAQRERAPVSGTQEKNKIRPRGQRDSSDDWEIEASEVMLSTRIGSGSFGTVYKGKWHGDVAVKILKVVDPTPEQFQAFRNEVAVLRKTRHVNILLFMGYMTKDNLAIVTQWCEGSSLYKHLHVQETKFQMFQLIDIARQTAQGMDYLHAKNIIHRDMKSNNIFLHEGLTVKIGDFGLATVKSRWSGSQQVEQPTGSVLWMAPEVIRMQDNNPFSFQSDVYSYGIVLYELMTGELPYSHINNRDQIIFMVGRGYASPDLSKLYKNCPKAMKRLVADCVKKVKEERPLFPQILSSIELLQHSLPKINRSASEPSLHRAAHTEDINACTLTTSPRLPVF
Sequence of BRAF (P15056 416-766): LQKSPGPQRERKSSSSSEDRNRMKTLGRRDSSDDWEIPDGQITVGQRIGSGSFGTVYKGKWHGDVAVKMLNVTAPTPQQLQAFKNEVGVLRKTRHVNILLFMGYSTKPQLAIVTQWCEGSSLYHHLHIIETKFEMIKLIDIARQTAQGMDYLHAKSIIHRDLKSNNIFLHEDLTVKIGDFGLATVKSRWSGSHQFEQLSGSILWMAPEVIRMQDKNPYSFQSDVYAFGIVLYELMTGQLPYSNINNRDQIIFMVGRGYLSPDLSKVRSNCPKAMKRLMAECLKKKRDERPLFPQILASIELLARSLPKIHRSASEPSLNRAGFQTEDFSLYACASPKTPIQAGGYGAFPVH

Row | Structure (SMILES) | IC50 (BRAF; [6]) | IC50 (BRAF; Table 3, ATP 100 μM) | IC50 (CRAF; [6]) | IC50 (CRAF; Table 3, ATP 100 μM) | EC50 [1] | EC50 [2] | pERK activation in RAS mutant cell lines (in words) [3] | ERK pathway inhibition index (EPII) [3] | Stimulation of in vitro and in vivo growth and induction of MAPK pathway response genes including EGFR ligands (in words) [4] | EC50 [5] | IC50 against mutated BRAF kinases including BRAFV600E (in words) (BRAF^V600E) | IC50 (BRAF^V600E; [7]) | IC50 (BRAF^V600E; Table 3, ATP 100 μM, read-out: Biochemical IC50 BRAF_V600E)
1 | O=C(c1c(F)ccc(NS(=O)(=O)N2CC[C@@H](F)C2)c1F)c1c[nH]c2ncc(-c3cnc(C4CC4)nc3)cc12 [Formula I, (3R)—N-[3-[5-(2-cyclopropylpyrimidin-5-yl)-1H-pyrrolo[2,3-b]pyridine-3-carbonyl]-2,4-difluorophenyl]-3-fluoropyrrolidine-1-sulfonamide] | 140 nM | 14.3 nM | 91 nM | 22.6 nM | 10 µM | 10 µM | essentially no pERK activation | >10,000 | no such effect | 10 µM | single digit | 4.2 nM | 4.4 nM
2 | CCN(C)S(=O)(=O)Nc1ccc(F)c(C(=O)c2c[nH]c3ncc(-c4cnc(C5CC5)nc4)cc23)c1F [Formula II, 5-(2-cyclopropylpyrimidin-5-yl)-3-[3-[[ethyl(methyl)sulfamoyl]amino]-2,6-difluoro-benzoyl]-1H-pyrrolo[2,3-b]pyridine] | 14 nM |  | 23 nM |  |  |  | essentially no pERK activation | >50,000 | no such effect |  | single digit | 3.8 nM | 
3 | CCCS(=O)(=O)Nc1ccc(F)c(C(=O)c2c[nH]c3ncc(-c4ccc(Cl)cc4)cc23)c1F [Vemurafenib, vemurafenib, reference compound] |  |  |  |  | 1.01 µM | 0.588 µM |  |  |  | 0.769 µM |  |  | 
